Measurements published in patent US20100004240A1, “Indole Compounds” (Glaxo Group Limited, priority 2006, published 2010).
Counter-ions that a name gives are not always drawn.

Legend:
human EP1 receptor = target: T1, human EP1 receptor (Homo sapiens, UniProt P34995); test: human EP1 calcium mobilisation assay; assay type: cell-based; conditions: for Ki: antagonism of PGE2-induced calcium mobilisation, CHO-K1 cells expressing human EP1, averages of a number of experiments, read-out: functional pKi value (converted)
T1 construct: expressed in transfected cells; host or cells: CHO-K1 cells
T1 sequence (P34995 1-402): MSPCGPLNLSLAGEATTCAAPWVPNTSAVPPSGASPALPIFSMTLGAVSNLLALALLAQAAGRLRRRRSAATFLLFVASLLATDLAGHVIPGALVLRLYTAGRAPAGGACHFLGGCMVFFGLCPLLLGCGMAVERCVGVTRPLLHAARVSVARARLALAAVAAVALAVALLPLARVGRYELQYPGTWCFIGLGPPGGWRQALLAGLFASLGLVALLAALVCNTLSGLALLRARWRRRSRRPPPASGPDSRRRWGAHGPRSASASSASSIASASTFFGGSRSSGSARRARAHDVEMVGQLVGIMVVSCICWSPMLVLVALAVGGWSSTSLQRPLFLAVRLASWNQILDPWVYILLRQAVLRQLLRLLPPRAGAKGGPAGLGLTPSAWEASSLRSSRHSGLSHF
Protocol: Briefly, the antagonist properties of compounds are assessed by their ability to inhibit the mobilisation of intracellular calcium ([Ca^2+]i) in response to activation of EP1 or EP3 receptors by the natural agonist hormone prostaglandin E2 (PGE2). Increasing concentrations of antagonist reduce the amount of calcium that a given concentration of PGE2 can mobilise. The net effect is to displace the PGE2 concentration-effect curve to higher concentrations of PGE2. The amount of calcium produced is assessed using a calcium-sensitive fluorescent dye such as Fluo-4, AM and a suitable instrument such as a Fluorimetric Imaging Plate Reader (FLIPR). Increasing amounts of [Ca^2+]i produced by receptor activation increase the amount of fluorescence produced by the dye and give rise to an increasing signal. The signal may be detected using the FLIPR instrument and the data generated may be analysed with suitable curve-fitting software.
The human EP1 or EP3 calcium mobilisation assay (hereafter referred to as ‘the calcium assay’) utilises Chinese hamster ovary-K1 (CHO-K1) cells into which a stable (pClN; BioTechniques 20 (1996): 102-110) vector containing either EP1 or EP3 cDNA has previously been transfected. Cells are cultured in suitable flasks containing culture medium such as DMEM:F-12 supplemented with 10% v/v foetal calf serum, 2 mM L-glutamine, 0.25 mg/ml geneticin, 100 μM flurbiprofen and 10 μg/ml puromycin.
For assay, cells are harvested using a proprietary reagent that dislodges cells such as Versene. Cells are re-suspended in a suitable quantity of fresh culture media for introduction into a 384-well plate. Following incubation for 24 hours at 37° C. the culture media is replaced with a medium containing Fluo-4 and the detergent pluronic acid, and a further incubation takes place. Concentrations of compounds are then added to the plate in order to construct concentration-effect curves. This may be performed on the FLIPR in order to assess the agonist properties of the compounds. Concentrations of PGE2 are then added to the plate in order to assess the antagonist properties of the compounds.
The data so generated may be analysed by means of a computerised curve-fitting routine. The concentration of compound that elicits a half-maximal inhibition of the calcium mobilisation induced by PGE2 (pIC50) may then be estimated.

[1] = target: T2, human prostanoid EP1 receptor (Homo sapiens, UniProt P34995); test: binding assay for the human prostanoid EP1 receptor (competition with [3H]-PGE2); conditions: [3H]-PGE2 competition, CHO-K1 cell membranes expressing human EP1; averages of a number of experiments; read-out: pIC50 value (converted)
T2 construct: expressed in transfected cells; host or cells: CHO-K1 cells, membrane fraction
T2 sequence (P34995 1-402): T1 sequence (P34995 1-402)
Protocol: Competition assay using [^3H]-PGE2.
Compound potencies are determined using a radioligand binding assay. In this assay compound potencies are determined from their ability to compete with tritiated prostaglandin E2 ([^3H]-PGE2) for binding to the human EP1 receptor.
This assay utilises Chinese hamster ovary-K1 (CHO-K1) cells into which a stable vector containing the EP1 cDNA has previously been transfected. Cells are cultured in suitable flasks containing culture medium such as DMEM:F-12 supplemented with 10% v/v foetal calf serum, 2 mM L-glutamine, 0.25 mg/ml geneticin, 10 μg/ml puromycin and 10 μM indomethacin.
Cells are detached from the culture flasks by incubation in calcium and magnesium free phosphate buffered saline containing 1 mM disodium ethylenediaminetetraacetic acid (Na2EDTA) and 10 μM indomethacin for 5 min. The cells are isolated by centrifugation at 250×g for 5 mins and suspended in an ice cold buffer such as 50 mM Tris, 1 mM Na2EDTA, 140 mM NaCl, 10 μM indomethacin (pH 7.4). The cells are homogenised using a Polytron tissue disrupter (2×10s burst at full setting), centrifuged at 48,000×g for 20 mins and the pellet containing the membrane fraction is washed (optional) three times by suspension and centrifugation at 48,000×g for 20 mins. The final membrane pellet is suspended in an assay buffer such as 10 mM 2-[N-morpholino]ethanesulphonic acid, 1 mM Na2EDTA, 10 mM MgCl2 (pH 6). Aliquots are frozen at −80° C. until required.
For the binding assay the cell membranes, competing compounds and [^3H]-PGE2 (3 nM final assay concentration) are incubated in a final volume of 100 μl for 30 min at 30^O C. All reagents are prepared in assay buffer. Reactions are terminated by rapid vacuum filtration over GF/B filters using a Brandell cell harvester. The filters are washed with ice cold assay buffer, dried and the radioactivity retained on the filters is measured by liquid scintillation counting in Packard TopCount scintillation counter.
The data are analysed using non linear curve fitting techniques to determine the concentration of compound producing 50% inhibition of specific binding (IC50).

Row | IC50 [1] [nM] | Ki (human EP1 receptor) [nM] | SMILES | activity in the calcium mobilisation assay (human EP1 receptor; human EP1, CHO-K1 cells)
1 | ≤ 1000 | ≤ 1000 | O=C(c1coc(-c2cn(C3CCCC3)c3ccc(Cl)cc23)n1)N1CCOCC1 [Example 4, 5-Chloro-1-cyclopentyl-3-[4-(4-morpholinylcarbonyl)-1,3-oxazol-2-yl]-1H-indole] | –
2 | – | ≤ 316 | CC(C)Cn1cc(-c2nc(C(=O)Nc3ccccn3)co2)c2cc(Cl)ccc21 [Example 6, 2-[5-Chloro-1-(2-methylpropyl)-1H-indol-3-yl]-N-2-pyridinyl-1,3-oxazole-4-carboxamide] | –
3 | ≤ 316 | ≤ 316 | CC(C)Cn1cc(-c2nc(C(N)=O)co2)c2cc(Cl)ccc21 [Example 8, 2-[5-Chloro-1-(2-methylpropyl)-1H-indol-3-yl]-1,3-oxazole-4-carboxamide] | –
4 | ≤ 316 | ≤ 316 | CC(C)Cn1cc(-c2nc(-c3nc4ccccc4[nH]3)co2)c2cc(Cl)ccc21 [Example 9, 2-{2-[5-Chloro-1-(2-methylpropyl)-1H-indol-3-yl]-1,3-oxazol-4-yl}-1H-benzimidazole hydrochloride] | –
5 | ≤ 316 | ≤ 1000 | CC(C)Cn1cc(-c2nc(-c3nc4ncccc4[nH]3)co2)c2cc(Cl)ccc21 [Example 10, 2-{2-[5-Chloro-1-(2-methylpropyl)-1H-indol-3-yl]-1,3-oxazol-4-yl}-1H-imidazo[4,5-b]pyridine] | –
6 | ≤ 316 | ≤ 316 | CC(C)Cn1cc(-c2nc(-c3nc4cc(CO)ccc4[nH]3)co2)c2cc(Cl)ccc21 [Example 11, (2-{2-[5-Chloro-1-(2-methylpropyl)-1H-indol-3-yl]-1,3-oxazol-4-yl}-1H-benzimidazol-5-yl)methanol] | –
7 | ≤ 316 | – | CC(C)Cn1cc(-c2nc(-c3nc4ccc(CN5CCCCC5)cc4[nH]3)co2)c2cc(Cl)ccc21 [Example 12, 2-{2-[5-Chloro-1-(2-methylpropyl)-1H-indol-3-yl]-1,3-oxazol-4-yl}-5-(1-piperidinylmethyl)-1H-benzimidazole dihydrochloride] | –
8 | ≤ 316 | – | CC(C)Cn1cc(-c2nc(-c3nc4ccc(CN5CCCC5)cc4[nH]3)co2)c2cc(Cl)ccc21 [Example 13, 2-{2-[5-Chloro-1-(2-methylpropyl)-1H-indol-3-yl]-1,3-oxazol-4-yl}-5-(1-pyrrolidinylmethyl)-1H-benzimidazole dihydrochloride] | –
9 | ≤ 1000 | – | CCNCc1ccc2nc(-c3coc(-c4cn(CC(C)C)c5ccc(Cl)cc45)n3)[nH]c2c1 [Example 14, [(2-{2-[5-Chloro-1-(2-methylpropyl)-1H-indol-3-yl]-1,3-oxazol-4-yl}-1H-benzimidazol-5-yl)methyl]ethylamine dihydrochloride] | –

Row | SMILES | IC50 [1] [nM] | Ki (human EP1 receptor) [nM] | activity in the calcium mobilisation assay (human EP1 receptor; human EP1, CHO-K1 cells)
10 | O=C(NC1CCOCC1)c1coc(-c2cn(CC3CC3)c3ccc(Cl)cc23)n1 [Example 1, 2-[5-Chloro-1-(cyclopropylmethyl)-1H-indol-3-yl]-N-(tetrahydro-2H-pyran-4-yl)-1,3-oxazole-4-carboxamide] | ≤ 1000 | – | inactive
11 | O=C(NN1CCOCC1)c1coc(-c2cn(CC3CC3)c3ccc(Cl)cc23)n1 [Example 2, 2-[5-Chloro-1-(cyclopropylmethyl)-1H-indol-3-yl]-N-4-morpholinyl-1,3-oxazole-4-carboxamide] | ≤ 316 | ≤ 1000 | –
12 | O=C(NN1CCOCC1)c1coc(-c2cn(C3CCCC3)c3ccc(Cl)cc23)n1 [Example 3, 2-(5-Chloro-1-cyclopentyl-1H-indol-3-yl)-N-4-morpholinyl-1,3-oxazole-4-carboxamide] | ≤ 316 | ≤ 316 | –
13 | CC(C)Cn1cc(-c2nc(C(=O)Nc3cccnc3)co2)c2cc(Cl)ccc21 [Example 5, 2-[5-Chloro-1-(2-methylpropyl)-1H-indol-3-yl]-N-3-pyridinyl-1,3-oxazole-4-carboxamide] | ≤ 316 | ≤ 316 | –
14 | CC(C)Cn1cc(-c2nc(C(=O)NCC3CCOCC3)co2)c2cc(Cl)ccc21 [Example 7, 2-[5-Chloro-1-(2-methylpropyl)-1H-indol-3-yl]-N-(tetrahydro-2H-pyran-4-ylmethyl)-1,3-oxazole-4-carboxamide] | ≤ 316 | ≤ 316 | –
